In brackets after ≈: the same amount, converted by molar mass.
Legend:
Format in all cases: functional
Staphylococcus aureus [1] = assay: Antimicrobial activity against methicillin-resistant Staphylococcus aureus ATCC 33591; conditions: read-out: MIC100
Staphylococcus aureus [2] = assay: Antimicrobial activity against methicillin-resistant Staphylococcus aureus Sanger 252; conditions: Sanger 252, read-out: MIC100
Staphylococcus aureus [3] = assay: Antimicrobial activity against methicillin-resistant Staphylococcus aureus UAMS 1182; conditions: read-out: MIC100

SMILES: CC(C)C[C@H]1NC(=O)[C@@H](NC(=O)c2ncccc2O)[C@@H](C)OC(=O)[C@@H](c2ccccc2)N(C)C(=O)[C@H](C)NC(=O)[C@H](C(C)C(C)C)N(C)C(=O)CN(C)C(=O)[C@H]2C[C@@H](O)CN2C1=O (stereo not given in full) [FIJIMYCIN A]
- MIC (Staphylococcus aureus [1]): 16 µg/mL (≈ 18.2 µM)
- MIC (Staphylococcus aureus [2]): 32 µg/mL (≈ 36.4 µM)
- MIC (Staphylococcus aureus [3]): 4 µg/mL (≈ 4.55 µM)

SMILES: CC(C)C[C@H]1NC(=O)[C@@H](NC(=O)c2ncccc2O)[C@@H](C)OC(=O)[C@H](CC(C)C)N(C)C(=O)[C@H](C)NC(=O)[C@H](C(C)C(C)C)N(C)C(=O)CN(C)C(=O)[C@H]2C[C@@H](O)CN2C1=O (stereo not given in full) [FIJIMYCIN B]
- MIC (Staphylococcus aureus [1]): > 32 µg/mL
- MIC (Staphylococcus aureus [3]): > 32 µg/mL

SMILES: CC(C)C[C@H]1NC(=O)[C@@H](NC(=O)c2ncccc2O)[C@@H](C)OC(=O)[C@H](c2ccccc2)N(C)C(=O)[C@H](CO)NC(=O)[C@H](C(C)C(C)C)N(C)C(=O)CN(C)C(=O)[C@H]2C[C@@H](O)CN2C1=O (stereo not given in full) [FIJIMYCIN C]
- MIC (Staphylococcus aureus [1]): 32 µg/mL (≈ 35.8 µM)
- MIC (Staphylococcus aureus [3]): 8 µg/mL (≈ 8.94 µM)

SMILES: CC(C)C[C@H]1NC(=O)[C@@H](NC(=O)c2ncccc2O)[C@@H](C)OC(=O)[C@H](c2ccccc2)N(C)C(=O)[C@H](C)NC(=O)[C@H](C(C)C(C)C)N(C)C(=O)CN(C)C(=O)[C@H]2C[C@@H](O)CN2C1=O (stereo not given in full) [VIRIFOGRISEIN I]
- MIC (Staphylococcus aureus [1]): 16 µg/mL (≈ 18.2 µM)
- MIC (Staphylococcus aureus [2]): 16 µg/mL (≈ 18.2 µM)
- MIC (Staphylococcus aureus [3]): 4 µg/mL (≈ 4.55 µM)

From ChEMBL document CHEMBL1914315, “Fijimycins A-C, three antibacterial etamycin-class depsipeptides from a marine-derived Streptomyces sp” (2011)
